Assay results reported in ChEMBL document CHEMBL6114999, “Natural pyrrolo[1,2-a]quinazolinone derivatives: Design, synthesis, characterization, and bio-evaluation as novel antiviral agents” (Eur J Med Chem, 2025).
Active and inactive are the calls of the source. No cut-off for these calls is given here.

Assays:
Enterovirus [1] = test: Antiviral activity against EV71 infected in human RD cells assessed as protection from virus-induced cytopathogenicity by measuring reduction in progeny virus titer incubated for 48 hrs by MTT assay; assay type: functional, 71
Enterovirus [2] = test: Antiviral activity against EV71 infected in human RD cells assessed as increase in cell viability at 3.125 to 100 uM incubated with compound and virus measured after 48 hrs by MTT assay; assay type: functional, organism-based; conditions: 71, dose 3.125-100 µM
Enterovirus [3] = test: Antiviral activity against EV71 infected in human RD cells assessed as inhibition of virus-induced cell death at 25 to 100 uM incubated for 48 hrs by MTT assay; assay type: functional, organism-based; conditions: 71, dose 25-100 µM
Coxsackievirus B3 [4] = test: Antiviral activity against CVB3 infected in HEp-2 cells assessed as protection from virus-induced cytopathogenicity incubated for 48 hrs by MTT assay; assay type: functional, organism-based; conditions: Enterovirus B, HEp-2, 48 h
Enterovirus [5] = test: Antiviral activity against EV71 infected in human RD cells assessed as reduction in viral protein translation at 100 uM incubated for 32 hrs by immunofluorescence analysis; assay type: functional, organism-based; conditions: 71
Coxsackievirus B3 [6] = test: Antiviral activity against CVB3 infected in HEp-2 cells assessed as inhibition of virus-induced cell death at 50 uM incubated for 48 hrs by MTT assay relative to control; assay type: functional; conditions: Enterovirus B
Coxsackievirus B3 [7] = test: Antiviral activity against CVB3 infected in HEp-2 cells assessed as inhibition of virus-induced cell death at 25 to 100 uM incubated for 48 hrs by MTT assay; assay type: functional, organism-based; conditions: dose 25-100 µM
Enterovirus [8] = test: Antiviral activity against EV71 infected in human RD cells assessed as viral infection in cell at 50 uM incubated for 46.5 hrs by fluorescence microscopy (reference value: 80.67 %); assay type: functional, 71
[9] = Selectivity index, ratio of CC50 for cytotoxicity against human RD cells to EC50 for antiviral activity against EV71 infected in human RD cells; assay type: toxicity, cell-based; conditions: read-out: Ratio CC50/EC50
[10] = Cytotoxicity against human HEp-2 cells incubated for 48 hrs by MTT assay; assay type: toxicity, cell-based
Enterovirus [11] = test: Antiviral activity against EV71 infected in human RD cells assessed as inhibition of virus-induced cell death at 25 uM incubated for 48 hrs by MTT assay relative to control; assay type: functional; conditions: Enterovirus, 71, RD
Enterovirus [12] = test: Antiviral activity against EV71 infected in human RD cells assessed as protection from virus-induced cytopathogenicity incubated for 48 hrs by MTT assay; assay type: functional, organism-based; conditions: Enterovirus, 71, RD
Enterovirus [13] = test: Antiviral activity against EV71 infected in human RD cells assessed as inhibition of virus-induced cell death at 100 uM incubated for 48 hrs by MTT assay relative to control; assay type: functional, 71; conditions: for inhibition at 100 µM: Enterovirus, 71, RD
Enterovirus [14] = test: Antiviral activity against EV71 infected in human RD cells assessed as viral infection in cell at 100 uM incubated for 46.5 hrs by fluorescence microscopy (reference value: 80.67 %); assay type: functional, 71
Enterovirus [15] = test: Inhibition of EV71 3Dpol assessed as decrease in RNA chain extension by polyacrylamide gel electrophoresis; conditions: 71
Enterovirus [16] = test: Antiviral activity against EV71 infected in human RD cells assessed as log reduction in viral replication at 100 uM incubated for 4 to 32 hrs by […] method; assay type: functional, 71; conditions: time 4-32 hrs
[17] = Cytotoxicity against human RD cells incubated for 48 hrs by MTT assay; assay type: toxicity, cell-based
Enterovirus [18] = test: Antiviral activity against EV71 infected in human RD cells assessed as inhibition of viral RNA synthesis at 100 uM incubated for 32 hrs by qRT-PCR analysis; assay type: functional, organism-based; conditions: 71
Coxsackievirus B3 [19] = test: Antiviral activity against CVB3 infected in HEp-2 cells assessed as protection from virus-induced cytopathogenicity by measuring reduction in progeny virus titer incubated for 48 hrs by MTT assay; assay type: functional
Coxsackievirus B3 [20] = test: Antiviral activity against CVB3 infected in HEp-2 cells assessed as inhibition of virus-induced cell death at 25 uM incubated for 48 hrs by MTT assay relative to control; assay type: functional; conditions: Enterovirus B
HEp-2 = test: Inhibition of morphological changes in HEp-2 cells infected with CVB3 assessed as reduction in cytopathic effect at 50 to 100 uM measured after 48 hrs by Reed-Muench method; assay type: functional, cell-based; conditions: Coxsackievirus B3, dose 50-100 µM
Enterovirus [21] = test: Antiviral activity against EV71 infected in human RD cells assessed as cell viability at 100 uM pre-infected with virus followed by compound treatment measured after 48 hrs post-infection by MTT assay relative to control; assay type: functional, 71
Enterovirus [22] = test: Virucidal activity against EV71 infected in human RD cells at 100 uM pretreated compound with virus followed by inoculation of mixture into host cells measured after 2 days by Reed-Muench method; assay type: functional, organism-based; conditions: 71, time 2.0 day
Enterovirus [23] = test: Antiviral activity against EV71 infected in human RD cells assessed as inhibition of virus-induced cell death at 50 uM incubated for 48 hrs by MTT assay relative to control; assay type: functional; conditions: Enterovirus, 71, RD
[24] = Selectivity index, ratio of CC50 for cytotoxicity against HEp-2 cells to EC50 for antiviral activity against CVB3 infected in HEp-2 cells; assay type: toxicity, cell-based; conditions: human, read-out: Ratio CC50/EC50
RD = test: Inhibition of morphological changes in human RD cells infected with EV71 assessed as reduction in cytopathic effect at 50 to 100 uM measured after 48 hrs by Reed-Muench method; assay type: functional, cell-based; conditions: Enterovirus, 71, dose 50-100 µM
Enterovirus [25] = test: Antiviral activity against EV71 infected in human RD cells assessed as increase in cell viability at 3.125 to 100 uM preincubated with compound followed by viral infection measured after 48 hrs by MTT assay; assay type: functional, organism-based; conditions: 71, dose 3.125-100 µM
Enterovirus [26] = test: Inhibition of EGFP-fused EV71 2Apro transfected in host cells co-expressing FLuc assessed as reduction in firefly luciferase activity incubated for 24 to 36 hrs by chemiluminescence analysis; assay type: cell-based; conditions: 71, time 24-36 hrs
Coxsackievirus B3 [27] = test: Antiviral activity against CVB3 infected in HEp-2 cells assessed as inhibition of virus-induced cell death at 100 uM incubated for 48 hrs by MTT assay relative to control; assay type: functional; conditions: for inhibition at 100 µM: Enterovirus B, HEp-2, 48 h

Compound	log(activity) (Enterovirus [1])	EC50 (Coxsackievirus B3 [4]) [µM]	inhibition at 50 µM (Coxsackievirus B3 [6]) [%]	selectivity ratio [9]	CC50 at 48 h [10] [µM]	inhibition at 25 µM (Enterovirus [11]) [%]	EC50 (Enterovirus [12]) [µM]	inhibition at 100 µM (Enterovirus [13]) [%]	CC50 at 48 h [17] [µM]	log(activity) (Coxsackievirus B3 [19])	inhibition at 25 µM (Coxsackievirus B3 [20]) [%]	inhibition at 50 µM (Enterovirus [23]) [%]	selectivity ratio [24]	inhibition at 100 µM (Coxsackievirus B3 [27]) [%]	also measured
CN1C(=O)c2ccccc2N2C(=O)CCC12C(=O)NCCc1c[nH]c2ccccc12 (stereo not given)	~2.73	82	40.8	17.9	217	33	14.8	62.3	265	~4.03	24.2	56.7	2.6	54.4	Activity (Enterovirus [2]): inactive; inhibition (Enterovirus [3]): Active; Activity (Enterovirus [5]): Active; antiviral activity call (active/inactive) (Coxsackievirus B3 [7]): Active; Activity (Enterovirus [8]): 22.66%; Activity (Enterovirus [14]): 5.34%; inhibition (Enterovirus [15]): inactive; log(activity) (Enterovirus [16]): 3.25; inhibition (Enterovirus [18]): Active; inhibition (HEp-2): Active; Compound Successfully Protected Host Cells From Pathological Changes Or Apoptosis; Activity (Enterovirus [21]): >80%; Activity (Enterovirus [22]): inactive; inhibition (RD): Active; Compound Successfully Protected Host Cells From Pathological Changes Or Apoptosis; Activity (Enterovirus [25]): inactive; inhibition (Enterovirus [26]): Active
NC(=O)c1ncn([C@@H]2O[C@H](CO)[C@@H](O)[C@H]2O)n1 [RIBAVIRIN]	2.3	24.7	60.7	6.6	204	53.8	40.4	69.7	267	3.07	47.3	61.1	8.2	71	Imax (Enterovirus [13]): 62.33%; Imax (Coxsackievirus B3 [27]): 71%
